Results on 2 compounds are retold here after publication PMC8668240, “GABAA Receptor Subunit Composition Drives Its Sensitivity to the Insecticide Fipronil” (Frontiers in Neuroscience, 2021).

Common to all, as to test: two-electrode voltage clamp, Xenopus oocytes
Common to all, as to assay type: cell-based
Background: Two-electrode voltage clamp holds a large cell at a set potential and records current.

The target in assay [1] is T1, α6β3 GABAAR (binary) (Mus musculus, UniProt P16305+P63080).
T1 construct: gene Gabra6; full-length cDNAs, injected 1:1 in Xenopus oocyte nucleus; heteropentamer without third subunit
T1 sequence (P16305 20-453): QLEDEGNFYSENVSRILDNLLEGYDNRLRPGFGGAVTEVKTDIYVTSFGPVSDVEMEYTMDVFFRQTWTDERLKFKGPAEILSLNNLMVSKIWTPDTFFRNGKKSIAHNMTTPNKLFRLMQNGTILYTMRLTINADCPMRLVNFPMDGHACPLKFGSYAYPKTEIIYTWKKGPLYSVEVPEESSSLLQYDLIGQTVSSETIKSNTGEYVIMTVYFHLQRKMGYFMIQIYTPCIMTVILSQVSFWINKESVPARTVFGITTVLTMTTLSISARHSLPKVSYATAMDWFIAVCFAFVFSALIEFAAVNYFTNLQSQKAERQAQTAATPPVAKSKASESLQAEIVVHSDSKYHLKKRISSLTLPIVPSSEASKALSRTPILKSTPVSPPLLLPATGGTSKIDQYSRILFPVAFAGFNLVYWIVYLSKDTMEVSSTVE
T1 sequence (P63080 26-473): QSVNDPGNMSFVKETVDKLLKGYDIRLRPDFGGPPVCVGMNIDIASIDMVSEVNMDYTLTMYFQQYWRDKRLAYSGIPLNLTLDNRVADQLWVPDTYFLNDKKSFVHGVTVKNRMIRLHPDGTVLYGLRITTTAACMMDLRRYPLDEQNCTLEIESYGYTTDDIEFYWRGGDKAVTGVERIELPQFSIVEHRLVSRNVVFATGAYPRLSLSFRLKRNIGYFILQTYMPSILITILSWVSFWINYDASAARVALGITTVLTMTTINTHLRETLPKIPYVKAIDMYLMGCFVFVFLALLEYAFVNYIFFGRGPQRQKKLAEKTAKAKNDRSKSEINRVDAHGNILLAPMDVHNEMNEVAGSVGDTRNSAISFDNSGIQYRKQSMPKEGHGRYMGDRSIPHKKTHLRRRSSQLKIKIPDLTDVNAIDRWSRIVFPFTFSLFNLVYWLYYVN

Assay [2] deals with T1, α6β3 GABAAR (binary). The note with it: read-out: IC50 (μM, ± SEM). The source says:
two-electrode voltage clamp, Xenopus oocytes on α6β3 GABAAR (binary)

Assay [3] deals with T2, α6β3δ GABAAR (extrasynaptic) (Mus musculus, UniProt P16305+P22933+P63080).
T2 construct: gene Gabra6; full-length cDNAs, injected 1:1:5 in Xenopus oocyte nucleus; heteropentamer
T2 sequence (P63080 26-473): as above
T2 sequence (P22933 25-449): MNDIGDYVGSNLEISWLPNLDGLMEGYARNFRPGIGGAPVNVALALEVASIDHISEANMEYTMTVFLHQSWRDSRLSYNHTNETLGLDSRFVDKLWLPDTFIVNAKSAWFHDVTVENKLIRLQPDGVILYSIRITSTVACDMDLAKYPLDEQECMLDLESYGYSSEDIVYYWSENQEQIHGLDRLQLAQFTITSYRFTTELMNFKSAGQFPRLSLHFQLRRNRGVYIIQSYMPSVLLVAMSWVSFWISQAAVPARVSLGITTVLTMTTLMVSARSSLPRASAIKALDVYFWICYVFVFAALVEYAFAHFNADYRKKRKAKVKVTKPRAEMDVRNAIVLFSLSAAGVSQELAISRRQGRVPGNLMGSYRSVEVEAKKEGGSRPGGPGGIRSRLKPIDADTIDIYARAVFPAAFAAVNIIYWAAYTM
T2 sequence (P16305 20-453): as the sequence (P16305 20-453) above
To be noted: read-out: IC50 (μM, ± SEM). The source says:
two-electrode voltage clamp, Xenopus oocytes on α6β3δ GABAAR (extrasynaptic)

For another assay, the target named is T3, β3 homopentamer (Mus musculus, UniProt P63080).
T3 construct: gene Gabrb3; full-length cDNA in pGW1 (= pRK5), expressed in Xenopus oocytes; homopentamer
T3 sequence (P63080 26-473): as the sequence (P63080 26-473) above
The note with it: current through spontaneously open β3; 1, 10 and 100 μM FPN; no GABA; positive modulator.

Usually EC50 stands for the concentration giving half of the maximal effect. A lower EC50 goes with a more potent agent. `NCCCC(=O)O` [GABA]: at α6β3 GABAAR (binary) [1], the concentration giving a half-maximal response (EC50) was determined as 0.43 ± 0.01 µM.
Broadly, the IC50 is the concentration needed to halve the response being measured. As for `N#Cc1nn(-c2c(Cl)cc(C(F)(F)F)cc2Cl)c(N)c1[S+]([O-])C(F)(F)F` (stereo not shown) [fipronil], the values for the half-inhibitory concentration (IC50) (on α6β3 GABAAR (binary) [2]; in assay [3]) were 2.4 ± 0.4 µM and 20.7 ± 2.6 µM, respectively. The “two-electrode voltage clamp, Xenopus oocytes” value on β3 homopentamer is reported as “The current density increases as a function of FPN concentrations”.
